Assay results: patent US12466863B2, “Nuclear reprogramming factor and induced pluripotent stem cells” (Kyoto University, priority 2005, dated 2025)

Tests used:
[1] = tested on: MEFs with Nanog-EGFP-IRES-Puro; assay: GFP-positive colonies from Nanog-EGFP-IRES-Puro MEFs after 4-factor transduction and puromycin selection; assay type: cell-based, mouse; conditions: PD98059 25 μM continuously from the next day of retroviral transfection; 4 factors; 8% without PD98059
Source text: Studies were made as to whether iPS cells could be established with a reporter other than Fbx15-βgeo. Escherichia coli artificial chromosome (BAC) containing the Nanog gene in the center was isolated, and then the GFP gene and the puromycin resistance gene were knocked in by recombination in E. coli (FIG. 12A). Subsequently, the above modified BAC was introduced into ES cells to confirm that the cells became GFP-positive in an undifferentiated state specific manner (data not shown). Then, these ES cells were transplanted in mouse blastocysts to create transgenic mice via chimeric mice. In these mice, GFP-positive cells were specifically observed in inner cell masses of the blastocysts or gonads of embryos at 13.5 days after fertilization (FIG. 12B). The gonads were removed from the embryos at 13.5 days after fertilization (hybrid of DBA, 129, and C57BL/6 mice), and MEFs were isolated. The isolated MEFs were confirmed to be GFP-negative (FIG. 13) by flow cytometry. These MEFs were retrovirally transduced with the 4 factors and subjected to puromycin selection, and as a result, a plural, number of resistant colonies were obtained. Only about 10 to 20% of the colonies were GFP-positive. When the GFP-positive colonies were passaged, they gave morphology (FIG. 14) and proliferation (FIG. 15) similar to those of ES cells. […]

[2] = tested on: MEFs derived from the Fbx15^βgeo/βgeo mouse; assay: Effect of cytokine (bFGF- or SCF-producing STO feeder cells) on iPS cell establishment; assay type: cell-based; conditions: no colony on normal STO cells
Source text: An effect of cytokine on iPS cell establishment was investigated. Expression vector (pMX retroviral vector) for basic fibroblast growth factor (bFGF) or stem cell factor (SCF) was transduced into feeder cells (STO cells) to establish cells permanently expressing the cytokines. […] As a result, the number of formed colonies increased 20 times or higher on the STO cells producing bFGF (FIG. 11) or SCF (data not shown), as compared with the culture on normal STO cells.

Molecule	percentage of GFP-positive colonies [1] [%]	iPS cell colony formation with the 3 factors other than c-Myc [2]
COc1cccc(-c2cc(=O)c3ccccc3o2)c1N [PD98059]	45	–
SCF: cytokine produced by STO feeder cells transduced with pMX expression vector	–	colony formation was observed
bFGF: cytokine produced by STO feeder cells transduced with pMX expression vector	–	colony formation was observed
